Source: patent US9399028B2, “Treatment of drug resistant cancer” (ROCKEFELLER UNIVERSITY (THE), priority 2012, dated 2016)
Counter-ions that a name gives are not always drawn.

What was measured:
[1] = system: human melanoma cells (MeWo, MeWo-LM2, A375-LM3, HT-144, SK-Mel-334.2); experiment: Tail-vein lung metastatic colonization assay, bioluminescence imaging; assay type: in vivo
Procedure: After 8 hours, the transfection media was replaced with fresh media. After 48 hours, 1×10^5 cells were injected intravenously into NOD-SCID mice to assess lung metastatic colonization or through intracardiac injection into athymic nude mice to assess systemic metastasis. For cell invasion and endothelial recruitment in vitro assays, the cells were used 96 hours post-transfection.
Melanoma cells used for in vivo metastasis assays were transduced with a stably expressed retroviral construct encoding a luciferase reporter gene (Ponomarev et al., 2004), allowing us to monitor the in vivo progression of melanoma cells by bioluminescence imaging. The following numbers of melanoma cells, resuspended in 100 μL, of PBS, were injected intravenously via the tail-vein: 4×10^4 MeWo cells, 2.5×10^5 HT-144 cells, 2×10^5 SK-Mel-334.2 cells, 5×10^4B16F10 cells, and 1×10^5 YUMM cells. The MeWo, HT-144, and SK-Mel-334.2 cells were injected into 6-8 week-old sex-matched NOD scid mice, while the B16F10 and YUMM cells were injected into 6-8 week-old sex-matched C57BL/6 mice. In all experiments assessing at the effects of GW3965 on metastasis formation, mice were pre-treated on a control diet or a GW3965-supplemented diet (20 mg/kg) for 10 days. To assess the effect of GW3965 treatment on brain metastasis, 1×10^5 MeWo brain-metastatic derivatives were injected intracardially into athymic nude mice. Immediately following injection, mice were randomly assigned to a control diet or GW3965-supplemented diet (100 mg/kg). To determine whether oral delivery of GW3965 can inhibit the progression of incipient metastasis, NOD Scid mice were intravenously injected with 4×10^4 MeWo cells and the cells were allowed to colonize the lungs for 42 days, after which mice were blindedly assigned to a control diet or a GW3965-supplemented diet (100 mg/kg) treatment.

[2] = system: B-RafV600E/+; Pten-/-; CDKN2A-/- primary mouse melanoma cells; experiment: B-RafV600E/+; Pten-/-; CDKN2A-/- melanoma cells in syngeneic C57BL/6 mice; assay type: in vivo
Procedure: FIG. 24A-F. Suppression of Genetically-Driven Melanoma Progression by LXR Activation Therapy. (FIG. 24A) Overall survival of Tyr::CreER; BrafV600E/+; Ptenlox/+C57BL/6 mice following general melanoma induction by intraperitoneal administration of 4-HT (25 mg/kg) on three consecutive days. After the first 4-HT injection, mice were randomly assigned to a control diet or a diet supplemented with GW3965 (100 mg/kg). n=10-11. (FIG. 24B) Melanoma tumor burden, expressed as the percentage of dorsal skin area, measured on day 35 in Tyr::CreER; BrafV600E/+; Ptenlox/lox mice administered a control chow or a chow supplemented with GW3965 (100 mg/kg) upon melanoma induction as described in (FIG. 24A). n=4-5. (FIG. 24C) Number of macroscopic metastatic nodules to the salivary gland lymph nodes detected post-mortem in Tyr::CreER; BrafV600E/+; Ptenlox/lox mice that were fed a control chow or a chow containing GW3965 (100 mg/kg) following global induction of melanoma progression as described in (FIG. 24A). n=7-8. (FIG. 24D) Tumor growth following subcutaneous injection of 1×105 BrafV600E/+; Pten−/−; CDKN2A−/− primary melanoma cells into syngeneic C57BL/6-WT mice. Upon tumor growth to 5-10 mm3 in volume, mice were fed with a control chow or a chow supplemented with GW3965 (100 mg/kg). n=16-18. […]

Compound	suppression of metastatic colonization ([1]; MeWo-LM2 cells pre-incubated 24 hours at 100 μg/mL before injection, NOD-SCID mice)	reduction in metastatic colonization capacity ([1]; MeWo cells pre-treated at 1 μM for 48 hours before injection)	reduction in lung metastatic colonization ([1]; MeWo cells, oral in chow 20 mg/kg from 10 days before injection) [fold]	survival times following metastatic colonization ([1]; MeWo, chow 20 mg/kg)	suppression of colonization by incipient lung metastases ([1]; MeWo, diet 100 mg/kg from d42) [fold]	number of macroscopic metastatic nodules formed ([1]; MeWo, diet 100 mg/kg from d42, lungs at d77)	metastatic colonization by HT-144 and SK-Mel-334.2 ([1]; oral in diet)	in vivo melanoma metastasis (lung, bioluminescence) ([1]; parental MeWo cells, chow diet 20 mg/kg)	lung metastasis ([2]; intravenous, diet 100 mg/kg)	tumor growth ([2]; subcutaneous, chow 100 mg/kg)
recombinant human ApoE3: recombinant human ApoE3 (4696, BioVision)	over 300 fold									
O=C(O)Cc1cccc(OCCCN(Cc2cccc(C(F)(F)F)c2Cl)CC(c2ccccc2)c2ccccc2)c1 [GW3965 2, 3-[3-[N-(2-Chloro-3-trifluoromethylbenzyl)-(2,2-diphenylethyl)amino]propyloxy]phenylacetic acid hydrochloride]		more than 50 fold	31	significantly prolonged	28	decreased	suppressed	significant reduction	robustly inhibited	robustly inhibited
